In DBAASP:
In brackets after ≈: the same amount, converted by molar mass. Several values for one entry are separate records, joined by “and”; a condition that tells them apart may be missing. Identical values can stand only once.

Assays:
Experiment in all cases: ≥ marks a high value that may be exact or a test limit, other limits are often not marked, values filed in µg/mL are converted to µM
[1] = tested on: Candida albicans ATCC 10231
Acinetobacter baumannii = tested on: Acinetobacter baumannii
[2] = tested on: Staphylococcus aureus ATCC 6538
[3] = tested on: Staphylococcus aureus ATCC 33591
[4] = tested on: Staphylococcus saprophyticus
[5] = tested on: Escherichia coli DH5alpha
[6] = tested on: Enterobacter cloacae ATCC 23355
Escherichia coli 804 = tested on: Escherichia coli 804
[7] = tested on: Escherichia coli ATCC 8739
[8] = tested on: Pseudomonas aeruginosa 86
Escherichia coli 850 = tested on: Escherichia coli 850
[9] = tested on: Staphylococcus epidermidis ATCC 12228
[10] = tested on: Pseudomonas aeruginosa 124
[11] = tested on: Bacillus subtilis CCT 2471
[12] = tested on: Candida albicans ATCC 200955
[13] = tested on: Staphylococcus aureus 936
Escherichia coli DL7 = tested on: Escherichia coli DL7
Escherichia coli ML-35 = tested on: Escherichia coli ML-35
Pseudomonas aeruginosa = tested on: Pseudomonas aeruginosa
[14] = tested on: Pseudomonas aeruginosa 119
[15] = tested on: Zymomonas mobilis ATCC 10988
Bacillus subtilis DELTA = tested on: Bacillus subtilis DELTA
[16] = tested on: Acinetobacter baumannii ATCC 19606
[17] = tested on: Klebsiella pneumoniae ATCC 700603
[18] = tested on: Klebsiella aerogenes ATCC 13048
[19] = tested on: Enterococcus faecium ATCC 700221
Proteus mirabilis = tested on: Proteus mirabilis
Escherichia coli MG1655 = tested on: Escherichia coli MG1655
Candida parapsilosis = tested on: Candida parapsilosis
[20] = tested on: Escherichia coli CCT 1371
Bacillus thuringiensis = tested on: Bacillus thuringiensis
[21] = tested on: Pseudomonas aeruginosa PAO1
Escherichia coli 780 = tested on: Escherichia coli 780
Staphylococcus aureus MR = tested on: Staphylococcus aureus MR

CC[C@H](C)[C@H](NC(=O)[C@H](CCCN=C(N)N)NC(=O)[C@H](CCCCN)NC(=O)[C@H](CC(C)C)NC(=O)[C@H](CC(C)C)NC(=O)CN)C(=O)N[C@@H](CCCCN)C(=O)N[C@H](C(=O)N[C@@H](CC(C)C)C(=O)N[C@@H](CC(C)C)C(N)=O)[C@@H](C)O [GLLKRIKTLL]
MIC [1]: 16.9 µM (≈ 19.5 µg/mL)
MIC (Acinetobacter baumannii): 16 µM (≈ 18.5 µg/mL)
MIC [2]: 43.3 µM and 65 µM
MIC [3]: ≥ 512 µM
MIC [4]: 4.33 µM (≈ 5 µg/mL)
MIC [5]: ≥ 260 µM
MIC [6]: ≥ 173 µM
MIC (Escherichia coli 804): ≥ 32 µM
MIC [7]: ≥ 35.5 µM
MIC [8]: 4 µM (≈ 4.61 µg/mL)
MIC (Escherichia coli 850): ≥ 32 µM
MIC [9]: 8 µM (≈ 9.23 µg/mL)
MIC [10]: ≥ 32 µM
MIC [11]: 17.3 µM (≈ 20 µg/mL)
MIC [12]: ≥ 171 µM
MIC [13]: ≥ 64 µM
MIC (Escherichia coli DL7): 16 µM (≈ 18.5 µg/mL)
MIC (Escherichia coli ML-35): 8 µM (≈ 9.23 µg/mL)
MIC (Pseudomonas aeruginosa): 11.3 µM (≈ 13.1 µg/mL)
MIC [14]: 4 µM (≈ 4.61 µg/mL)
MIC [15]: ≥ 173 µM
MIC (Bacillus subtilis DELTA): ≥ 173 µM
MIC [16]: 64 µM (≈ 73.8 µg/mL)
MIC [17]: 64 µM and 128 µM
MIC [18]: ≥ 32 µM
MIC [19]: ≥ 133 µM
MIC (Proteus mirabilis): ≥ 173 µM
MIC (Escherichia coli MG1655): ≥ 32 µM
MIC (Candida parapsilosis): ≥ 43.3 µM
MIC [20]: ≥ 86.6 µM
MIC (Bacillus thuringiensis): ≥ 173 µM
MIC [21]: 173 µM (≈ 200 µg/mL)
MIC (Escherichia coli 780): 16 µM (≈ 18.5 µg/mL)
MIC (Staphylococcus aureus MR): ≥ 45.3 µM
